According to patent publication US10500209B2, “Quinazolinones as bromodomain inhibitors” (Zenith Epigenetics Ltd., priority 2013, dated 2019):

Legend:
[1] = target: T1, Brd4 bromodomain 1 (BRD4(1)) (Homo sapiens, UniProt O60885); experiment: Inhibition of tetra-acetylated histone H4 binding to BET bromodomains (TR-FRET); set-up: key: Active: Compounds with an IC50 value less than 30 μM were deemed to be active.; Not Active: Compounds with an IC50 value less than 30 μM were deemed to be active; details: first bromodomain of Brd4, tetra-acetylated histone H4 peptide
T1 construct: made in house; host or cells: E. coli BL21(DE3)
Procedure: Proteins were cloned and overexpressed with a N-terminal 6×His tag, then purified by nickel affinity followed by size exclusion chromatography. Briefly, E. coli BL21(DE3) cells were transformed with a recombinant expression vector encoding N-terminally Nickel affinity tagged bromodomains from Brd2, Brd3, Brd4. Cell cultures were incubated at 37° C. with shaking to the appropriate density and induced overnight with IPTG. The supernatant of lysed cells was loaded onto Ni-IDA column for purification. Eluted protein is pooled, concentrated and further purified by size exclusion chromatography. Fractions representing monomeric protein were pooled, concentrated, aliquoted, and frozen at −80° C. for use in subsequent experiments.
Binding of tetra-acetylated histone H4 and BET bromodomains was confirmed by a Time Resolved Fluorescence Resonance Energy Transfer (TR-FRET) method. N-terminally His-tagged bromodomains (200 nM) and biotinylated tetra-acetylated histone H4 peptide (25-50 nM, Millipore) were incubated in the presence of Europium Cryptate-labeled streptavidin (Cisbio Cat. #610SAKLB) and XL665-labeled monoclonal anti-His antibody (Cisbio Cat. #61HISXLB) in a white 96 well microtiter plate (Greiner). For inhibition assays, serially diluted test compound was added to these reactions in a 0.2% final concentration of DMSO. Final buffer concentrations were 30 mM HEPES pH 7.4, 30 mM NaCl, 0.3 mM CHAPS, 20 mM phosphate pH 7.0, 320 mM KF, 0.08% BSA). After a 2-h incubation at room temperature, the fluorescence by FRET was measured at 665 and 620 nm by a SynergyH4 plate reader (Biotek). The binding inhibitory activity was shown by a decrease in 665 nm fluorescence relative to 620 nm. IC50 values were determined from a dose response curve.

SMILES	FRET activity BRD4(1) [1]	melting point
COc1cc(OC)c2c(=O)[nH]c(-c3ncccc3NCCCNC(C)C)nc2c1 [Example 43, 2-(3-((3-(Isopropylamino)propyl)amino)pyridin-2-yl)-5,7-dimethoxyquinazolin-4(3H)-one]	Active	121 to 122 °C
COc1cc(OC)c2c(=O)[nH]c(-c3ncccc3NC3CCN(C)CC3)nc2c1 [Example 44, 5,7-Dimethoxy-2-(3-((1-methylpiperidin-4-yl)amino)pyridine-2-yl)quinazolin-4(3H)-one]	Active	186 to 188 °C
COc1ccc(-c2nc3cc(OC)cc(OC)c3c(=O)[nH]2)c(NCCN2CCNCC2)c1 [Example 24, 5,7-Dimethoxy-2-(4-methoxy-2-((2-(piperazin-1-yl)ethyl)amino)phenyl)quinazolin-4(3H)-one]	Active	210 to 212 °C
COc1cncc2nc(-c3ncccc3NC3CCN(C(C)C)CC3)[nH]c(=O)c12 [Example 58, 2-(3-((1-Isopropylpiperidin-4-yl)amino)pyridin-2-yl)-5-methoxypyrido[3,4-d]pyrimidin-4(3H)-one]	Active	237 to 238 °C
COc1ccc(-c2nc3cc(OC)cc(OC)c3c(=O)[nH]2)c(C(=O)N2CCN(C)CC2)c1 [Example 2, 5,7-Dimethoxy-2-(4-methoxy-2-(4-methylpiperazine-1-carbonyl)phenyl) quinazolin-4(3H)-one]	Active	–
COc1ccc(-c2nc3cc(OC)cc(OC)c3c(=O)[nH]2)c(NCCN2CCCCC2)c1 [Example 12, 5,7-Dimethoxy-2-(4-methoxy-2-((2-(piperidin-1-yl)ethyl)amino)-phenyl)quinazolin-4(3H)-one]	Active	231 to 232 °C
COc1cnc(-c2nc3cc(OC)cc(OC)c3c(=O)[nH]2)c(N[C@H]2CC[C@@H](NC(=O)C(C)C)CC2)c1 [Example 38, N-(cis-4-((2-(5,7-Dimethoxy-4-oxo-3,4-dihydroquinazolin-2-yl)-5-methoxypyridin-3-yl)amino)cyclohexyl)isobutyramide]	–	285 °C (dec.)
COc1cc(OC)c2c(=O)[nH]c(-c3ccccc3NC3CCN(C(C)C)CC3)nc2c1 [Example 10, 2-(2-((1-Isopropylpiperidin-4-yl)amino)phenyl)-5,7-dimethoxyquinazolin-4(3H)-one]	Active	267 to 269 °C
COc1cc(OC)c2c(=O)[nH]c(-c3ccc(Cl)cc3NC3CCN(C(C)C)CC3)nc2c1 [Example 33, 2-(4-Chloro-2-((1-isopropylpiperidin-4-yl)amino)phenyl)-5,7-dimethoxyquinazolin-4(3H)-one]	–	265 °C (dec.)
COc1ccc(-c2nc3cc(OC)cc(OC)c3c(=O)[nH]2)c(N(C)C2CCN(C)CC2)c1 [Example 5, 5,7-Dimethoxy-2-(4-methoxy-2-(methyl(1-methylpiperidin-4-yl)amino)phenyl) quinazolin-4(3H)-one]	–	217 to 218 °C
COc1cc(OC)c2c(=O)[nH]c(-c3cccc(NC4CCN(C(C)C)CC4)c3)nc2c1 [Example 27, 2-(3-((1-Isopropylpiperidin-4-yl)amino)phenyl)-5,7-dimethoxyquinazolin-4(3H)-one]	Active	–
COc1cc(OC)c2c(=O)[nH]c(-c3ncccc3NCC3CCN(C)C3)nc2c1 (stereo not shown) [Example 41, 5,7-Dimethoxy-2-(3-(((1-methylpyrrolidin-3-yl)methyl)amino)pyridin-2-yl)quinazolin-4(3H)-one]	Active	157 to 159 °C
COc1cc(N)cc2nc(-c3ncccc3NC3CCN(C(C)C)CC3)[nH]c(=O)c12 [Example 65, 7-amino-2-(3-((1-Isopropylpiperidin-4-yl)amino)pyridin-2-yl)-5-methoxyquinazolin-4(3H)-one]	Active	–
COc1cc(OC)c2c(=O)[nH]c(-c3ncccc3NC3CCN(C(C)(C)CO)CC3)nc2c1 [Example 68, 2-(3-((1-(1-Hydroxy-2-methylpropan-2-yl)piperidin-4-yl)amino)pyridin-2-yl)-5,7-dimethoxyquinazolin-4(3H)-one]	Active	223 to 225 °C
COc1ccc(-c2nc3cc(OC)cc(OC)c3c(=O)[nH]2)c(NCC2CCN(C)CC2)c1 [Example 6, 5,7-Dimethoxy-2-(4-methoxy-2-(((1-methylpiperidin-4-yl)methyl)amino)phenyl) quinazolin-4(3H)-one]	Active	264 to 265 °C
COc1cc(OC)c2c(=O)[nH]c(-c3ccc(Cl)cc3NC3CCN(C(=O)C(C)C)CC3)nc2c1 [Example 34, 2-(4-Chloro-2-((1-isobutyrylpiperidin-4-yl)amino)phenyl)-5,7-dimethoxyquinazolin-4(3H)-one]	Active	281 to 283 °C
COc1ccc(-c2nc3cc(OC)cc(OC)c3c(=O)[nH]2)c(NC2CCN(C)C2)c1 (stereo not shown) [Example 4, 5,7-Dimethoxy-2-(4-methoxy-2-((1-methylpyrrolidin-3-yl)amino)phenyl)quinazolin-4(3H)-one]	Active	214 to 215 °C
COc1ccc(-c2nc3cc(OC)cc(OC)c3c(=O)[nH]2)c(NC2CCN(Cc3ccccc3)CC2)c1 [Example 35, 2-(2-((1-Benzylpiperidin-4-yl)amino)-4-methoxyphenyl)-5,7-dimethoxyquinazolin-4(3H)-one]	Active	–
COc1ccc(-c2nc3cc(OC)cc(OC)c3c(=O)[nH]2)c(NCCCN2CCOCC2)c1 [Example 13, 5,7-Dimethoxy-2-(4-methoxy-2-((3-morpholinopropyl)amino)-phenyl)quinazolin-4(3H)-one]	Active	234 to 235 °C
COc1cc(OC)c2c(=O)[nH]c(-c3ncccc3N[C@H]3CC[C@@H](C(=O)N(C)C)CC3)nc2c1 [Example 53, cis-4-((2-(5,7-Dimethoxy-4-oxo-3,4-dihydroquinazolin-2-yl)pyridin-3-yl)amino)-N,N-dimethylcyclohexane-1-carboxamide]	Active	276 to 278 °C
COc1cc(OC)c2c(=O)[nH]c(-c3ncccc3NCCN3CCOCC3)nc2c1 [Example 49, 5,7-Dimethoxy-2-(3-((2-morpholinoethyl)amino)pyridine-2-yl)quinazolin-4(3H)-one]	Active	168 to 170 °C
COc1ccc(-c2nc3cc(OC)cc(OC)c3c(=O)[nH]2)c(NCCN2CCCC2)c1 [Example 11, 5,7-Dimethoxy-2-(4-methoxy-2-((2-(pyrrolidin-1-yl)ethyl)amino)phenyl)quinazolin-4(3H)-one]	Active	226 to 228 °C
COc1cc(OC)c2c(=O)[nH]c(-c3ncccc3NC3CCN(C(N)=O)CC3)nc2c1 [Example 54, 4-((2-(5,7-Dimethoxy-4-oxo-3,4-dihydroquinazolin-2-yl)pyridin-3-yl)amino)piperidine-1-carboxamide]	Active	265 to 266 °C
COc1ccc(-c2nc3cc(OC)cc(OC)c3c(=O)[nH]2)c(NC2CCC(C)(C)CC2)c1 [Example 29, 2-(2-((4,4-Dimethylcyclohexyl)amino)-4-methoxyphenyl)-5,7-dimethoxyquinazolin-4(3H)-one]	Active	–
